Results published in patent publication US20210161997A1, “TREATING DISEASES VIA TARGETED MODULATION OF GENE SIGNALING NETWORKS” (Camp4 Therapeutics Corporation, priority 2018, published 2021).

Legend:
Assay type in all cases: cell-based
SLC37A4 = assay: RNA-seq of SLC37A4 expression in compound-treated primary human hepatocytes
Experimental: Human hepatocytes were obtained from two donors from Massachusetts General Hospital, namely MGH54 and MGH63, and one donor from Lonza, namely HUM4111B. Cryopreserved hepatocytes were cultured in plating media for 16 hours, transferred to maintenance media for 4 hours. Cultured on serum-free media for 2 hours, then a compound was added. The hepatocytes were maintained on the serum-free media for 16 hours prior to gene expression analysis. Primary human hepatocytes were stored in the vapor phase of a liquid nitrogen freezer (about −130° C.).
Human hepatocytes cultured as described above were plated in 24-well format, adding 375,000 cells per well in a volume of 500 ul plating medium. Four hours before treatment, cells were washed with PBS and the medium was changed to either: fresh maintenance medium (complete) or modified maintenance medium.
Compound stocks were prepared at 1000× final concentration and added in a 2-step dilution to the medium to reduce risk of a compound precipitating out of solution when added to the cells, and to ensure reasonable pipetting volumes. One at a time, each compound was first diluted 10-fold in warm (about 37° C.) modified maintenance medium (initial dilution=ID), mixed by vortexing, and the ID was diluted 100-fold into the cell culture (e.g. 5.1 ul into 1 well of a 24-well plate containing 0.5 mL medium). The plate was mixed by carefully swirling and after all wells were treated and returned to the incubator overnight. If desired, separate plates/wells were treated with vehicle-only controls and/or positive controls. If using multi-well plates, controls were included on each plate. After about 18 hours, cells were harvested for further analysis, e.g., ChIP-seq, RNA-seq, ATAC-seq, etc.
This protocol is a modified version of the following protocols: MagMAX mirVana Total RNA Isolation Kit User Guide (Applied Biosystems #MAN0011131 Rev B.0), NEBNext Poly(A) mRNA Magnetic Isolation Module (E7490), and NEBNext Ultra Directional RNA Library Prep Kit for Illumina (E7420) (New England Biosystems #E74901).
The MagMAX mirVana kit instructions (the section titled “Isolate RNA from cells” on pages 14-17) were used for isolation of total RNA from cells in culture. Two hundred μl of Lysis Binding Mix was used per well of the multiwell plate containing adherent cells (usually a 24-well plate).
For mRNA isolation and library prep, the NEBNext Poly(A) mRNA Magnetic Isolation Module and Directional Prep kit was used. RNA isolated from cells above was quantified, and prepared in […] of each sample in 50 μl of nuclease-free water. This protocol may be run in microfuge tubes or in a 96-well plate.
All pass filter reads from each sample were mapped against the human genome (assembly GRCh38/GCA_000001405.15 “no alt” analysis set merged with hs38d1/GCA_000786075.2) using two pass mapping via STAR version 2.5.3a (alignment parameters alignIntronMin=20; alignIntronMax=1000000; outFilterMismatchNmax=999; outFilterMismatchNoverLmax=0.05; outFilterType=BySJout; outFilterMultimapNmax=20; alignSJoverhangMin=8; alignSJDBoverhangMin=1; alignMatesGapMax=1000000) (Dobin et al., Bioinformatics (2012) 29(1):15-21). Genomic alignments were converted to transcriptome alignments based on reference transcript annotations from the Human GENCODE Gene Set release 24 (Harrow et al., Genome Res. (2012) 22(9): 1760-1774). Using unique and multimapped transcriptomic alignments, gene-level abundance estimates were computed using RSEM version 1.3.0 (Li and Dewey, BMC Bioinformatics (2011) 12:323) in a strand-aware manner, and including confidence interval sampling calculations, to arrive at posterior mean estimates (PME) of abundances (counts and normalized FPKM—fragments per kilobase of exon per million mapped fragments) from the underlying Bayesian model. Standard QC were applied (read integrity, mapping statistics, library complexity, fragment bias) to remove unsatisfactory samples.

NOTCH2 = assay: RNA-seq of NOTCH2 expression in compound-treated primary human hepatocytes; conditions: primary human hepatocytes
In short: (§1)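 Cryopreserved primary human hepatocytes from three donors, switched to serum-free medium 2 h before compound addition, were harvested about 18 h after treatment. Poly(A) mRNA was sequenced and aligned to GENCODE release 24, with DESeq2 negative binomial differential expression. Fold change is the treated level over the unperturbed level.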

JAG1 = assay: RNA-seq of JAG1 expression in compound-treated primary human hepatocytes; conditions: for JAG1 Fold Change (Log2): primary human hepatocytes; for Significant modulation of JAG1 (in words): summary of Table 6
In short: as §1

| SMILES | SLC37A4 Fold Change (Log2) (SLC37A4) | NOTCH2 Fold Change (Log2) (NOTCH2) | JAG1 Fold Change (Log2) (JAG1) | Significant modulation of JAG1 (in words) (JAG1) |
| --- | --- | --- | --- | --- |
| S=C(NCc1ccc2c(c1)OCO2)N1CCN(c2ncnc3c2oc2ccccc23)CC1 [Amuvatinib] | 0.97 | −0.79 | 0.74 | significantly modulate only JAG1 |
| O=C1CCC(N2C(=O)c3ccccc3C2=O)C(=O)N1 (centres unmarked) [Thalidomide] | 0.64 | −0.68 | 1.30 | significantly modulate only JAG1 |
